What was measured:
HIV protease = HIV protease (Human immunodeficiency virus type 1 group M subtype B, UniProt P04585); experiment: HIV protease enzyme assay (fluorescent substrate 2-aminobenzoyl-Ile-Nle-Phe(p-NO2)-Gln-ArgNH2); type: biochemical; conditions: concentration at which the inhibitor reduces enzyme activity by 50%; enzyme about 12.3 nanomolar, substrate about 80 μM, pH 6.4
Text: The compounds of the present invention are advantageously effective HIV protease inhibitors. Utilizing an enzyme assay as described below, the compounds set forth in the examples herein disclosed inhibited the HIV enzyme. The preferred compounds of the present invention and their calculated IC50 (the concentration at which the inhibitor compound reduces enzyme activity by 50%) values are shown in Table 2.
The enzyme method is as follows. The substrate is 2-aminobenzoyl-Ile-Nle-Phe(p-NO2)-Gln-ArgNH2. The positive control is MVT-101 (Miller, M. et al, Science, 246, 1149 (1989)). The assay buffer is 20 mM sodium phosphate, pH 6.4, 20% glycerol, 1 mM EDTA, 1 mM DTT and 0.1% CHAPS. The substrate is dissolved in DMSO, then diluted 10 fold in assay buffer. Final substrate concentration in the assay is about 80 μM. HIV protease is diluted in the assay buffer to a final enzyme concentration of about 12.3 nanomolar, based on a molecular weight of 10,780.
The final concentration of DMSO is about 14% and the final concentration of glycerol is about 18%. The test compound is dissolved in DMSO and diluted in DMSO to ten times (10×) the test concentration. Ten microliters (10 μL) of the enzyme preparation is added, the materials mixed and then the mixture is incubated at ambient temperature for 15 minutes. The enzyme reaction is initiated by the addition of 40 μL of substrate. The increase in fluorescence is monitored at 4 time points (0, 8, 16 and 24 minutes) at ambient temperature. Each assay is carried out in duplicate wells.

HIV-1 in CEM cells = experiment: CEM cell assay, HIV inhibition in acutely infected cells (MTT); type: cell-based; conditions: Human immunodeficiency virus 1, CCRF-CEM, 168 h; HIV-1 infected CEM cells, 7 days
Protocol: The effectiveness of selected compounds of the present invention were determined in the above-described enzyme assay and in a CEM cell assay. The HIV inhibition assay method of acutely infected cells is an automated tetrazolium based calorimetric assay essentially that reported by Pauwles et al, J. Virol. Methods 20, 309-321 (1988). Assays were performed in 96-well tissue culture plates. CEM cells, a CD4+ cell line, were grown in RPMI-1640 medium (Gibco) supplemented with a 10% fetal calf serum and were then treated with polybrene (2 μg/ml). An 80 μl volume of medium containing 1×10^4 cells was dispensed into each well of the tissue culture plate. To each well was added a 100 μl volume of test compound dissolved in tissue culture medium (or medium without test compound as a control) to achieve the desired final concentration and the cells were incubated at 37° C. for 1 hour. A frozen culture of HIV-1 was diluted in culture medium to a concentration of […] (TCID50=the dose of virus that infects 50% of cells in tissue culture), and a 20 μL volume of the virus sample (containing 1000 TCID50 of virus) was added to wells containing test compound and to wells containing only medium (infected control cells). Several wells received culture medium without virus (uninfected control cells). Likewise, the intrinsic toxicity of the test compound was determined by adding medium without virus to several wells containing test compound. In summary, the tissue culture plates contained the following experiments: In experiments 2 and 4 the final concentrations of test compounds were 1, 10, 100 and 500 μg/ml. Either azidothymidine (AZT) or dideoxyinosine (ddI) was included as a positive drug control. […] DMSO was added to all control wells at an appropriate concentration. Following the addition of virus, cells were incubated at 37° C. in a humidified, 5% CO2 atmosphere for 7 days. Test compounds could be added on days 0, 2 and 5 if desired. On day 7, post-infection, the cells in each well were resuspended and a 100 μl sample of each cell suspension was removed for assay. A 20 μL volume of a 5 mg/ml solution of 3-(4,5-dimethylthiazol-2-yl)-2,5-diphenyltetrazolium bromide (MTT) was added to each 100 μL cell suspension, and the cells were incubated for 4 hours at […] in a 5% CO2 environment. […] To each sample was added 100 μl of 10% sodium dodecylsulfate in 0.01N HCl to lyse the cells, and samples were incubated overnight. The absorbance at 590 nm was determined for each sample using a Molecular Devices microplate reader. Absorbance values for each set of wells is compared to assess viral control infection, uninfected control cell response as well as test compound by cytotoxicity and antiviral efficacy.

CEM cells = type: cell-based; design: unit not given beside the values
Protocol: The HIV inhibition assay method of acutely infected cells is an automated tetrazolium based calorimetric assay essentially that reported by Pauwles et al, J. Virol. Methods 20, 309-321 (1988). Assays were performed in 96-well tissue culture plates. CEM cells, a CD4+ cell line, were grown in RPMI-1640 medium (Gibco) supplemented with a 10% fetal calf serum and were then treated with polybrene (2 μg/ml). An 80 μl volume of medium containing 1×10^4 cells was dispensed into each well of the tissue culture plate. To each well was added a 100 μl volume of test compound dissolved in tissue culture medium (or medium without test compound as a control) to achieve the desired final concentration and the cells were incubated at 37° C. for 1 hour. A frozen culture of HIV-1 was diluted in culture medium to a concentration of 5×104 TCID50 per ml (TCID50=the dose of virus that infects 50% of cells in tissue culture), and a 20 μL volume of the virus sample (containing 1000 TCID50 of virus) was added to wells containing test compound and to wells containing only medium (infected control cells). Several wells received culture medium without virus (uninfected control cells). Likewise, the intrinsic toxicity of the test compound was determined by adding medium without virus to several wells containing test compound. In summary, the tissue culture plates contained the following experiments: In experiments 2 and 4 the final concentrations of test compounds were 1, 10, 100 and 500 μg/ml. Either azidothymidine (AZT) or dideoxyinosine (ddI) was included as a positive drug control. […] DMSO was added to all control wells at an appropriate concentration. Following the addition of virus, cells were incubated at 37° C. in a humidified, 5% CO2 atmosphere for 7 days. Test compounds could be added on days 0, 2 and 5 if desired. […] The absorbance at 590 nm was determined for each sample using a Molecular Devices microplate reader. Absorbance values for each set of wells is compared to assess viral control infection, uninfected control cell response as well as test compound by cytotoxicity and antiviral efficacy.

[1] = Identification of metabolite in blood of male rats after oral administration (LC-MS); type: in vivo, rat; conditions: male rats (n=5), in 0.5% methylcellulose and 0.1% polysorbate 80, blood at 0.25-4 hours
Protocol: Butaneamide, 2-[(N,N-dimethylaminoacetyl)amino]-N-[3-[[[(1,1-dimethylethyl)amino]carbonyl](3-methylbutyl)amino]-2-hydroxy-1-(phenylmethyl)propyl]-3,3-dimethyl-, [1S-[1R*(R*), 2S*]]-, as prepared in Example 1 herein, is administered to male rats (n=5) orally in water containing 0.5% methylcellulose and 0.1% polysorbate 80 in a total volume of 5 to 7 mL per kilogram. Blood samples are collected at 0.25, 0.50, 1, 2 and 4 hours. The samples for each time-point are pooled and extracted onto a 100 mg C18 solid phase extraction column (SPEC) after prior treatment with methanol to denature plasma proteins. The extract is purified by washing the SPEC with water and collected after the addition of 1% formic acid in methanol to the SPEC. Concentration of the extract is achieved by evaporation and resolubilization in a small volume of water:acetonitrile (3:1, v/v). The resolubilized extract is filtered through a 0.2μ filter and injected onto a liquid chromatograph coupled to a mass spectrometer, using a VG Trio 2 Mass Spectrometer, by means of a thermospray interface. The chromatographic separation is produced by use of a 10 cm (2×5 cm) YMC Basic column with a mobile phase of water:acetonitrile:pyridine:formic acid (545:440:10:5, by volume).

SMILES	IC50 (HIV protease) [µM]	EC50 (HIV-1 in CEM cells) [µM]	TD50 (CEM cells)	metabolite found in blood extract compared with synthesized metabolite standard [1]
CC[C@H](C)[C@H](NC(=O)CNC)C(=O)N[C@@H](Cc1ccccc1)[C@H](O)CN(CCC(C)C)C(=O)NC(C)(C)C [Example 4, (2R,3S)-3-(N-methylaminoacetyl-L-isoleucinyl) amido-1-[N-isoamyl-N-(tert-butylcarbamoyl)]amino-4-phenyl-2-butanol]	0.013	0.091	55,000	
CC(C)CCN(C[C@@H](O)[C@H](Cc1ccccc1)NC(=O)[C@@H](NC(=O)CN(C)C)C(C)(C)C)C(=O)NC(C)(C)C [Example 1, Butaneamide, 2-[(N,N-dimethylaminoacetyl)amino]-N-[3-[[[(1,1-dimethylethyl)amino]carbonyl](3-methylbutyl)amino]-2-hydroxy-1-(phenylmethyl)propyl]-3,3-dimethyl-,[1S-[1R*(R*), 2S*]]-]	0.01	0.058	45,000	corresponding spectra and chromatogram from a standard of the synthesized metabolite can be favorably compared
CNCC(=O)N[C@H](C(=O)N[C@@H](Cc1ccccc1)[C@H](O)CN(CCC(C)C)C(=O)NC(C)(C)C)C(C)(C)C [Example 2, (2R, 3S)-3(N-methylaminoacetyl-L-tert-butylglycinyl) amino-2-hydroxy-4-phenyl-1-[N-(3-methylbutyl)-N-[(1,1-dimethylethyl)amino]carbonyl]aminobutane]	0.006	0.022	45,000	

Source: patent US5750648A, “Retroviral protease inhibitors and combinations thereof” (G.D. Searle & Co., priority 1994, dated 1998)
